From US20240174744A1, “METHODS OF TREATMENT USING PROTEIN BINDERS TO IRHOM2 EPITOPES” (SCIRHOM GMBH, priority 2021, published 2024)

Test system: LPS-induced release of TNFα from THP-1 cells
Assay: ELISA-based TNFα release assay, LPS-stimulated THP-1 cells
Assay type: cell-based, human
Conditions: 10 μg/ml, Batimastat 10 μM, LPS 50 ng/ml, 2 hours
Method: In the following study, ELISA-based TNFα release assays were performed to verify the inhibitory effects of the purified antibodies of the present disclosure on LPS-induced release of endogenous TNFα from human THP-1 monocytic cells.
In brief, on day 1, Nunc black MaxiSorp® 96-well plates (Thermo Fisher Scientific, USA) were coated overnight with 100 μl per well of mouse anti-human TNFα capture antibody (provided as part of the DuoSet ELISA kit) at 4 μg/ml TBS at 4° C. On day 2, the capture antibody solution was removed and MaxiSorp® plates were blocked with 300 μl per well of TBS, 1% BSA at room temperature for 3 hours. […] Using an infinite M1000 (Tecan Group, Switzerland) microplate reader, the fluorescence of each well was collected at an excitation wavelength of 435 nm and an emission wavelength of 555 nm. […]

CNC(=O)[C@H](Cc1ccccc1)NC(=O)[C@H](CC(C)C)[C@H](CSc1cccs1)C(=O)NO [Batimastat]
inhibition of LPS-induced release of TNFα from THP-1 cells (antibodies purified from hybridoma supernatants): 96.2% | inhibition of LPS-induced release of TNFα from THP-1 cells (recombinant antibodies (Expi293F)): 96.2%
